Experimental data taken from patent US6770597B2, “Benzohydrazide derivatives as herbicides and desiccant compositions containing them” (Ishihara Sangyo Kaisha, Ltd., priority 2002, dated 2004).

How the values were obtained:
Type in all cases: in vivo
[1] = test system: barnyardgrass (Echinochloa crus-galli, ECHCG); assay: Greenhouse herbicide screen, post-emerge application, phytotoxicity rating; settings: POST emergent, 14 days after application, scale 0-100
How it was run: (§1)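 Seeds went into sandy loam soil mix, one day before spraying for pre-emergence or 8–21 days before for post-emergence. Test substances in acetone were then sprayed at rates of 15–1000 g ai/ha. Damage was scored 0–100 fourteen days later.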

[2] = test system: cocklebur (Xanthium strumarium, XANST); assay: as above; settings: POST emergent, 14 days after application, scale 0-100
How it was run: as §1

[3] = test system: common ragweed (Ambrosia artemisiifolia L., AMBEL); assay: as above; settings: POST emergent, 14 days after application, scale 0-100
How it was run: as §1

[4] = test system: green foxtail (Setaria viridis, SETVI); assay: as above; settings: POST emergent, 14 days after application, scale 0-100
How it was run: as §1

[5] = test system: ivyleaf morningglory (Ipomoea hederacea, IPOHE); assay: as above; settings: POST emergent, 14 days after application, scale 0-100
How it was run: as §1

[6] = test system: johnsongrass (Sorghum halepense, SORHA); assay: as above; settings: POST emergent, 14 days after application, scale 0-100
How it was run: as §1

[7] = test system: lambsquarters (Chenopodium album, CHEAL); assay: as above; settings: POST emergent, 14 days after application, scale 0-100
How it was run: as §1

[8] = test system: large crabgrass (Digitaria sanguinalis, DIGSA); assay: as above; settings: POST emergent, 14 days after application, scale 0-100
How it was run: as §1

[9] = test system: redroot pigweed (Amaranthus retrofiexus, AMARE); assay: as above; settings: POST emergent, 14 days after application
How it was run: as §1

[10] = test system: sicklepod (Cassia obtusifolia, CASOB); assay: as above; settings: POST emergent, 14 days after application, scale 0-100
How it was run: as §1

[11] = test system: velvetleaf (Abutilon theophrasti, ABUTH); assay: as above; settings: POST emergent, 14 days after application, scale 0-100
How it was run: as §1

[12] = test system: field corn (Zea mays L., var. Dekalb 535, CORN); assay: Greenhouse herbicide screen, post-emerge application, crop damage rating; settings: POST emergent, 14 days after application, scale 0-100
Text: (§2) A standard greenhouse herbicide activity screening system was used to evaluate the herbicidal efficacy and crop safety of these test compounds. Seven broadleaf weed species including redroot pigweed (Amaranthus retrofiexus, AMARE), velvetleaf (Abutilon theophrasti, ABUTH), sicklepod (Cassia obtusifolia, CASOB), ivyleaf morningglory (Ipomoea hederacea, IPOHE), lambsquarters (Chenopodium album, CHEAL), common ragweed (Ambrosia artemisiifolia L., AMBEL), and cocklebur (Xanthium strumarium, XANST) were used as test species. Four grass weed species including green foxtail (Setaria viridis, SETVI), barnyardgrass (Echinochloa crus-galli, ECHCG), johnsongrass (Sorghum halepense, SORHA), and large crabgrass (Digitaria sanguinalis, DIGSA) were also used. In addition, four crop species, field corn (Zea mays L., var. Dekalb 535, CORN), soybean (Glycine max L., var. Pella 86, SOY), upland rice (Oryza sp., var.Cocodrie, RICE) and wheat (Triticum aestivum L.) were included.
(§3) All plants were grown in 10 cm square plastic pots which were filled with a sandy loam soil mix. For pre-emerge tests, seeds were planted one day prior to application of the test compounds. For post-emerge tests, seeds were planted 8-21 days prior to the test to allow emergence and good foliage development prior to application of the test substances. At the time of the post-emerge application, plants of all species were usually at the 2-3 leaf stage of development.
(§4) All test compounds were dissolved in acetone and applied to the test units in a volume of 187 l/ha. Test materials were applied at rates ranging from 15 g ai/ha to 1000 g ai/ha using a track sprayer equipped with a TJ8001E even flow flat fan spray nozzle. Plants were arranged on a shelf so that the top of the canopy (post-emerge) or top of the soil surface (pre-emerge) was 40-45 cm below the nozzle. Pressurized air was used to force the test solution through the nozzle as it was mechanically advanced (via electrically driven chain drive) over the top of all test plants/pots. This application simulates a typical commercial field herbicide application.
(§5) Pre-emergence tests were top watered immediately after treatment to incorporate the test materials, then routinely top-watered for normal growth. Post-emerge test units were always bottom-watered.
(§6) At 14 days after application of the test materials, phytotoxicity ratings were recorded. A rating scale of 0-100 was used as previously described in Research Methods in Weed Science, 2nd edition, B. Truelove, Ed., Southern Weed Science Society, Auburn University, Auburn, Ala., 1977. Briefly, “0” corresponds to no damage and “100” corresponds to complete death of all plants in the test unit. This scale was used both to determine efficacy against weed species and damage to crop species. Herbicide activity data for various compounds of this invention, which are shown by compound No. in Tables 1-12, are shown in Tables 13 and 14.

[13] = test system: upland rice (Oryza sp., var.Cocodrie, RICE); assay: as above; settings: POST emergent, 14 days after application, scale 0-100
Text: as §2, §3, §4, §5, §6

[14] = test system: barnyardgrass (Echinochloa crus-galli, ECHCG); assay: Greenhouse herbicide screen, pre-emerge application, phytotoxicity rating; settings: PRE emergent, 14 days after application, rating scale 0-100
How it was run: as §1

[15] = test system: cocklebur (Xanthium strumarium, XANST); assay: as above; settings: PRE emergent, 14 days after application, rating scale 0-100
How it was run: as §1

[16] = test system: common ragweed (Ambrosia artemisiifolia L., AMBEL); assay: as above; settings: PRE emergent, 14 days after application, rating scale 0-100
How it was run: as §1

[17] = test system: green foxtail (Setaria viridis, SETVI); assay: as above; settings: PRE emergent, 14 days after application, rating scale 0-100
How it was run: as §1

[18] = test system: ivyleaf morningglory (Ipomoea hederacea, IPOHE); assay: as above; settings: PRE emergent, 14 days after application, rating scale 0-100
How it was run: as §1

[19] = test system: johnsongrass (Sorghum halepense, SORHA); assay: as above; settings: PRE emergent, 14 days after application, rating scale 0-100
How it was run: as §1

[20] = test system: lambsquarters (Chenopodium album, CHEAL); assay: as above; settings: PRE emergent, 14 days after application, rating scale 0-100
How it was run: as §1

[21] = test system: large crabgrass (Digitaria sanguinalis, DIGSA); assay: as above; settings: PRE emergent, 14 days after application, rating scale 0-100
How it was run: as §1

[22] = test system: redroot pigweed (Amaranthus retrofiexus, AMARE); assay: as above; settings: PRE emergent, 14 days after application, rating scale 0-100
How it was run: as §1

[23] = test system: sicklepod (Cassia obtusifolia, CASOB); assay: as above; settings: PRE emergent, 14 days after application, rating scale 0-100
How it was run: as §1

[24] = test system: velvetleaf (Abutilon theophrasti, ABUTH); assay: as above; settings: PRE emergent, 14 days after application, rating scale 0-100
How it was run: as §1

[25] = test system: field corn (Zea mays L., var. Dekalb 535, CORN); assay: Greenhouse herbicide screen, pre-emerge application, crop damage rating; settings: PRE emergent, 14 days after application, rating scale 0-100
Text: as §2, §3, §4, §5, §6

[26] = test system: upland rice (Oryza sp., var.Cocodrie, RICE); assay: as above; settings: PRE emergent, 14 days after application, rating scale 0-100
Text: as §2, §3, §4, §5, §6

CC1CCCC(C)N1NC(=O)c1cc(-n2c(=O)cc(C(F)(F)F)n(C)c2=O)c(F)cc1Cl (stereo not shown) [Compound 1-16]
30: phytotoxicity rating DIGSA ([8]; 63 g ai/ha) | phytotoxicity rating DIGSA ([21]; 63 g ai/ha)
100: phytotoxicity rating XANST ([2]; 250 g ai/ha) | phytotoxicity rating IPOHE ([5]; 63 g ai/ha) | phytotoxicity rating IPOHE ([5]; 250 g ai/ha) | phytotoxicity rating CHEAL ([7]; 63 g ai/ha) | phytotoxicity rating CHEAL ([7]; 250 g ai/ha) | phytotoxicity rating AMARE ([9]; 63 g ai/ha, scale 0-100 (0 no damage, 100 complete death)) | phytotoxicity rating AMARE ([9]; 250 g ai/ha, scale 0-100) | phytotoxicity rating ABUTH ([11]; 63 g ai/ha) | phytotoxicity rating ABUTH ([11]; 250 g ai/ha) | crop damage rating CORN ([12]; 63 g ai/ha) | crop damage rating CORN ([12]; 250 g ai/ha) | phytotoxicity rating XANST ([15]; 250 g ai/ha) | phytotoxicity rating IPOHE ([18]; 63 g ai/ha) | phytotoxicity rating IPOHE ([18]; 250 g ai/ha) | phytotoxicity rating CHEAL ([20]; 63 g ai/ha) | phytotoxicity rating CHEAL ([20]; 250 g ai/ha) | phytotoxicity rating AMARE ([22]; 63 g ai/ha) | phytotoxicity rating AMARE ([22]; 250 g ai/ha) | phytotoxicity rating ABUTH ([24]; 63 g ai/ha) | phytotoxicity rating ABUTH ([24]; 250 g ai/ha) | crop damage rating CORN ([25]; 63 g ai/ha) | crop damage rating CORN ([25]; 250 g ai/ha)
90: phytotoxicity rating SETVI ([4]; 63 g ai/ha) | phytotoxicity rating SETVI ([17]; 63 g ai/ha)
98: phytotoxicity rating ECHCO ([1]; 250 g ai/ha) | phytotoxicity rating DIGSA ([8]; 250 g ai/ha) | phytotoxicity rating CASOB ([10]; 63 g ai/ha) | crop damage rating RICE ([13]; 250 g ai/ha) | phytotoxicity rating ECHCG ([14]; 250 g ai/ha) | phytotoxicity rating DIGSA ([21]; 250 g ai/ha) | phytotoxicity rating CASOB ([23]; 63 g ai/ha) | crop damage rating RICE ([26]; 250 g ai/ha)
99: phytotoxicity rating AMBEL ([3]; 63 g ai/ha) | phytotoxicity rating AMBEL ([3]; 250 g ai/ha) | phytotoxicity rating SETVI ([4]; 250 g ai/ha) | phytotoxicity rating SORHA ([6]; 250 g ai/ha) | phytotoxicity rating CASOB ([10]; 250 g ai/ha) | phytotoxicity rating AMBEL ([16]; 63 g ai/ha) | phytotoxicity rating AMBEL ([16]; 250 g ai/ha) | phytotoxicity rating SETVI ([17]; 250 g ai/ha) | phytotoxicity rating SORHA ([19]; 250 g ai/ha) | phytotoxicity rating CASOB ([23]; 250 g ai/ha)
35: phytotoxicity rating ECHCO ([1]; 63 g ai/ha) | phytotoxicity rating ECHCG ([14]; 63 g ai/ha)
45: crop damage rating RICE ([13]; 63 g ai/ha) | crop damage rating RICE ([26]; 63 g ai/ha)
75: phytotoxicity rating XANST ([2]; 63 g ai/ha) | phytotoxicity rating SORHA ([6]; 63 g ai/ha) | phytotoxicity rating XANST ([15]; 63 g ai/ha) | phytotoxicity rating SORHA ([19]; 63 g ai/ha)
